Assays:
[1] = target: hAChE from freshly collected human erythrocytes (Homo sapiens, UniProt P22303); experiment: Ex vivo anticholinesterase activity; format: biochemical
[2] = target: hBChE from freshly collected human plasma (Homo sapiens, UniProt P06276); experiment: Ex vivo anticholinesterase activity; format: biochemical
[3] = human plasma, following a Posiphen 40 mg dose; cited from earlier work

Sequence of hAChE from freshly collected human erythrocytes (P22303 32-617 isoform P22303-2 limits assumed): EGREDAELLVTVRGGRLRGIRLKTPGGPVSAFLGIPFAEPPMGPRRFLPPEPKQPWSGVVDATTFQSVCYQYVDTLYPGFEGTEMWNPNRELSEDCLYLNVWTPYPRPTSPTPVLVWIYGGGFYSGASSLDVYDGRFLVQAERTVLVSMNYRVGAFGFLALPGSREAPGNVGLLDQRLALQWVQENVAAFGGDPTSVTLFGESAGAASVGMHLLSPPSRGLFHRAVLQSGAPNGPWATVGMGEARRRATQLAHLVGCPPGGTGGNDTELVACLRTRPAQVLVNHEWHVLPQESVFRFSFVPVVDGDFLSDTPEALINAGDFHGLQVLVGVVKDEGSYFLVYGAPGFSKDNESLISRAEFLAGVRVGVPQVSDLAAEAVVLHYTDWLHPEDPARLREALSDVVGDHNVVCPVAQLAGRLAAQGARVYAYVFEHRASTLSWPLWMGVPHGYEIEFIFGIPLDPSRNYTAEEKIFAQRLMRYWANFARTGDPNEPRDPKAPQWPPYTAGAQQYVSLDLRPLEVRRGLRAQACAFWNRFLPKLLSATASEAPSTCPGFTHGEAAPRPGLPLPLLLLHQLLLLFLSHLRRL
Sequence of hBChE from freshly collected human plasma (P06276 29-602): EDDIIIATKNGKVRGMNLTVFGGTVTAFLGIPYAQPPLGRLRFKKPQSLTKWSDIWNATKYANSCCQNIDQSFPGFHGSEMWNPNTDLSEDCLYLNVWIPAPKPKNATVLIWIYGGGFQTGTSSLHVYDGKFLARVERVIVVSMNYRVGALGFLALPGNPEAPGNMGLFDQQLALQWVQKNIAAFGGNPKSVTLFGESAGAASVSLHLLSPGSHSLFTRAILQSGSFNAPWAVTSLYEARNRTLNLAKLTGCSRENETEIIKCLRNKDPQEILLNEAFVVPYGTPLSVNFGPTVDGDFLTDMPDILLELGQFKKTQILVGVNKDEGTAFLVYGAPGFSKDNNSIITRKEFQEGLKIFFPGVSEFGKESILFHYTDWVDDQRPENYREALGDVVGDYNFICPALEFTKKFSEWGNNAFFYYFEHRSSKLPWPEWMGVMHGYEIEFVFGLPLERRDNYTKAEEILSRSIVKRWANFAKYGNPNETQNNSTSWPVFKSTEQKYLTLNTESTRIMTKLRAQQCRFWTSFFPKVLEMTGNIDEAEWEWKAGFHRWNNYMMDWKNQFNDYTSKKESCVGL

SMILES | IC50 [1] [µM] | AChE inhibitory action (in words) ([1]; wet lab evaluation, human AChE) | IC50 [2] [µM] | plasma concentration CMax [3] [ng/mL]
CN1CC[C@]2(C)c3cc(OC(=O)Nc4ccccc4)ccc3N(C)[C@H]12 [Posiphen] | > 10 | lacks AChE inhibitory action | > 10 | 118.5
CN1CC[C@@]2(C)c3cc(OC(=O)Nc4ccccc4)ccc3N(C)[C@@H]12 [Phenserine, reference compound] | – | – | 1.38 ± 0.24 | –
